PubChem BioAssay (NCI)
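Each compound was tested at five concentrations against cells in 96-well plates for 48 hours. Abbreviation: GI50, concentration required for 50% inhibition of growth. TGI marks complete inhibition of growth.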

Experiments:
Assay in all cases: NCI anticancer screen, dose series, 48 h
M14 melanoma = tested on: M14 melanoma
OVCAR-5 ovarian = tested on: OVCAR-5 ovarian
HOP-92 NSCLC = tested on: HOP-92 NSCLC
MALME-3M melanoma = tested on: MALME-3M melanoma
PC-3 prostate = tested on: PC-3 prostate
HCT-116 colon = tested on: HCT-116 colon
CCRF-CEM leukemia = tested on: CCRF-CEM leukemia
SW-620 colon = tested on: SW-620 colon
U251 CNS = tested on: U251 CNS
LOX IMVI melanoma = tested on: LOX IMVI melanoma
MDA-MB-435 = tested on: MDA-MB-435
SR leukemia = tested on: SR leukemia
BT-549 breast = tested on: BT-549 breast
786-0 renal = tested on: 786-0 renal
A498 renal = tested on: A498 renal
SK-MEL-2 melanoma = tested on: SK-MEL-2 melanoma
HCT-15 colon = tested on: HCT-15 colon
ACHN renal = tested on: ACHN renal
UACC-257 melanoma = tested on: UACC-257 melanoma
KM12 colon = tested on: KM12 colon
SK-MEL-28 melanoma = tested on: SK-MEL-28 melanoma
SF-295 CNS = tested on: SF-295 CNS
SNB-75 CNS = tested on: SNB-75 CNS
MDA-MB-231 breast = tested on: MDA-MB-231 breast
NCI-H23 lung = tested on: NCI-H23 lung
RPMI-8226 leukemia = tested on: RPMI-8226 leukemia
SK-MEL-5 melanoma = tested on: SK-MEL-5 melanoma
NCI-H522 lung = tested on: NCI-H522 lung
OVCAR-8 ovarian = tested on: OVCAR-8 ovarian
T-47D breast = tested on: T-47D breast
NCI-H460 lung = tested on: NCI-H460 lung
CAKI-1 renal = tested on: CAKI-1 renal
SK-OV-3 ovarian = tested on: SK-OV-3 ovarian
NCI-H226 lung = tested on: NCI-H226 lung
UO-31 renal = tested on: UO-31 renal
EKVX NSCLC = tested on: EKVX NSCLC
HL-60(TB) leukemia = tested on: HL-60(TB) leukemia
MOLT-4 leukemia = tested on: MOLT-4 leukemia
MCF7 breast = tested on: MCF7 breast
SN12C renal = tested on: SN12C renal
HOP-62 NSCLC = tested on: HOP-62 NSCLC
UACC-62 melanoma = tested on: UACC-62 melanoma
SF-539 CNS = tested on: SF-539 CNS
K-562 leukemia = tested on: K-562 leukemia
IGROV1 ovarian = tested on: IGROV1 ovarian
RXF 393 renal = tested on: RXF 393 renal
HS 578T breast = tested on: HS 578T breast
OVCAR-4 ovarian = tested on: OVCAR-4 ovarian
HT29 colon = tested on: HT29 colon
DU-145 prostate = tested on: DU-145 prostate
OVCAR-3 ovarian = tested on: OVCAR-3 ovarian
HCC-2998 colon = tested on: HCC-2998 colon
SF-268 CNS = tested on: SF-268 CNS
NCI/ADR-RES ovarian = tested on: NCI/ADR-RES ovarian
COLO 205 colon = tested on: COLO 205 colon
A549 NSCLC = tested on: A549 NSCLC

Q: For COc1cccc2c(=O)c3c(sc12)c(NCCCNCCO)nc1ccccc13, which GI50 (M14 melanoma) is on record?
A: 1.7 µM

Q: And the TGI (M14 melanoma)?
A: 3.22 µM

Q: What about the GI50 (OVCAR-5 ovarian) of the same compound?
A: 1.58 µM

Q: And the TGI (OVCAR-5 ovarian)?
A: 3.16 µM

Q: What about the GI50 (HOP-92 NSCLC) of the same compound?
A: 1.32 µM

Q: And the TGI (HOP-92 NSCLC)?
A: 13.1 µM

Q: And the GI50 (MALME-3M melanoma)?
A: 1.64 µM

Q: What about the TGI (MALME-3M melanoma) of the same compound?
A: 3.15 µM

Q: And the GI50 (PC-3 prostate)?
A: 1.23 µM

Q: What about the TGI (PC-3 prostate) of the same compound?
A: 2.7 µM

Q: And the GI50 (HCT-116 colon)?
A: 1.41 µM

Q: What about the TGI (HCT-116 colon) of the same compound?
A: 2.74 µM

Q: What about the GI50 (CCRF-CEM leukemia) of the same compound?
A: 1.53 µM

Q: And the TGI (CCRF-CEM leukemia)?
A: 3.18 µM

Q: What about the GI50 (SW-620 colon) of the same compound?
A: 1.38 µM

Q: And the TGI (SW-620 colon)?
A: 2.9 µM

Q: What about the GI50 (U251 CNS) of the same compound?
A: 1.53 µM

Q: And the TGI (U251 CNS)?
A: 3.02 µM

Q: And the GI50 (LOX IMVI melanoma)?
A: 1.48 µM

Q: What about the TGI (LOX IMVI melanoma) of the same compound?
A: 2.96 µM

Q: What about the GI50 (MDA-MB-435) of the same compound?
A: 1.72 µM

Q: And the TGI (MDA-MB-435)?
A: 3.2 µM

Q: And the GI50 (SR leukemia)?
A: 1.45 µM

Q: What about the TGI (SR leukemia) of the same compound?
A: 3.83 µM

Q: And the GI50 (BT-549 breast)?
A: 5.29 µM

Q: What about the TGI (BT-549 breast) of the same compound?
A: 18.6 µM

Q: What about the GI50 (786-0 renal) of the same compound?
A: 1.75 µM

Q: And the TGI (786-0 renal)?
A: 3.25 µM

Q: What about the GI50 (A498 renal) of the same compound?
A: 1.56 µM

Q: What about the TGI (A498 renal) of the same compound?
A: 3.3 µM

Q: And the GI50 (SK-MEL-2 melanoma)?
A: 1.83 µM

Q: What about the TGI (SK-MEL-2 melanoma) of the same compound?
A: 3.74 µM

Q: What about the GI50 (HCT-15 colon) of the same compound?
A: 1.51 µM

Q: And the TGI (HCT-15 colon)?
A: 3.02 µM

Q: What about the GI50 (ACHN renal) of the same compound?
A: 1.35 µM

Q: What about the TGI (ACHN renal) of the same compound?
A: 2.67 µM

Q: And the GI50 (UACC-257 melanoma)?
A: 1.94 µM

Q: What about the TGI (UACC-257 melanoma) of the same compound?
A: 3.79 µM

Q: And the GI50 (KM12 colon)?
A: 1.72 µM

Q: What about the TGI (KM12 colon) of the same compound?
A: 3.23 µM

Q: What about the GI50 (SK-MEL-28 melanoma) of the same compound?
A: 1.9 µM

Q: What about the TGI (SK-MEL-28 melanoma) of the same compound?
A: 3.46 µM

Q: What about the GI50 (SF-295 CNS) of the same compound?
A: 1.71 µM

Q: And the TGI (SF-295 CNS)?
A: 3.24 µM

Q: And the GI50 (SNB-75 CNS)?
A: 0.964 µM

Q: And the TGI (SNB-75 CNS)?
A: 7.44 µM

Q: What about the GI50 (MDA-MB-231 breast) of the same compound?
A: 1.35 µM

Q: What about the TGI (MDA-MB-231 breast) of the same compound?
A: 2.86 µM

Q: And the GI50 (NCI-H23 lung)?
A: 1.64 µM

Q: What about the TGI (NCI-H23 lung) of the same compound?
A: 3.27 µM

Q: And the GI50 (RPMI-8226 leukemia)?
A: 1.73 µM

Q: What about the TGI (RPMI-8226 leukemia) of the same compound?
A: 3.71 µM

Q: What about the GI50 (SK-MEL-5 melanoma) of the same compound?
A: 1.69 µM

Q: And the TGI (SK-MEL-5 melanoma)?
A: 3.11 µM

Q: And the GI50 (NCI-H522 lung)?
A: 1.58 µM

Q: What about the TGI (NCI-H522 lung) of the same compound?
A: 3.45 µM

Q: And the GI50 (OVCAR-8 ovarian)?
A: 1.78 µM

Q: What about the TGI (OVCAR-8 ovarian) of the same compound?
A: 3.97 µM

Q: And the GI50 (T-47D breast)?
A: 1.48 µM

Q: And the TGI (T-47D breast)?
A: 3.48 µM

Q: And the GI50 (NCI-H460 lung)?
A: 1.54 µM

Q: And the TGI (NCI-H460 lung)?
A: 3.15 µM

Q: And the GI50 (CAKI-1 renal)?
A: 1.18 µM

Q: And the TGI (CAKI-1 renal)?
A: 2.5 µM

Q: And the GI50 (SK-OV-3 ovarian)?
A: 3.39 µM

Q: What about the TGI (SK-OV-3 ovarian) of the same compound?
A: 19.4 µM

Q: And the GI50 (NCI-H226 lung)?
A: 1.6 µM

Q: What about the TGI (NCI-H226 lung) of the same compound?
A: 3.46 µM

Q: And the GI50 (UO-31 renal)?
A: 1.03 µM

Q: And the TGI (UO-31 renal)?
A: 2.28 µM

Q: And the GI50 (EKVX NSCLC)?
A: 1.52 µM

Q: And the TGI (EKVX NSCLC)?
A: 3.05 µM

Q: What about the GI50 (HL-60(TB) leukemia) of the same compound?
A: 1.73 µM

Q: And the TGI (HL-60(TB) leukemia)?
A: 3.5 µM

Q: What about the GI50 (MOLT-4 leukemia) of the same compound?
A: 1.58 µM

Q: What about the TGI (MOLT-4 leukemia) of the same compound?
A: 3.31 µM

Q: And the GI50 (MCF7 breast)?
A: 1.46 µM

Q: And the TGI (MCF7 breast)?
A: 3 µM

Q: What about the GI50 (SN12C renal) of the same compound?
A: 1.51 µM

Q: And the TGI (SN12C renal)?
A: 3.06 µM

Q: What about the GI50 (HOP-62 NSCLC) of the same compound?
A: 1.2 µM

Q: And the TGI (HOP-62 NSCLC)?
A: 2.81 µM

Q: And the GI50 (UACC-62 melanoma)?
A: 1.6 µM

Q: And the TGI (UACC-62 melanoma)?
A: 3.03 µM

Q: What about the GI50 (SF-539 CNS) of the same compound?
A: 1.68 µM

Q: And the TGI (SF-539 CNS)?
A: 3.1 µM

Q: What about the GI50 (K-562 leukemia) of the same compound?
A: 1.42 µM

Q: What about the TGI (K-562 leukemia) of the same compound?
A: 3.68 µM

Q: What about the GI50 (IGROV1 ovarian) of the same compound?
A: 1.16 µM

Q: And the TGI (IGROV1 ovarian)?
A: 2.58 µM

Q: What about the GI50 (RXF 393 renal) of the same compound?
A: 1.46 µM

Q: And the TGI (RXF 393 renal)?
A: 2.84 µM

Q: And the GI50 (HS 578T breast)?
A: 1.65 µM

Q: What about the TGI (HS 578T breast) of the same compound?
A: 4.07 µM

Q: What about the GI50 (OVCAR-4 ovarian) of the same compound?
A: 1.63 µM

Q: And the TGI (OVCAR-4 ovarian)?
A: 3.38 µM

Q: And the GI50 (HT29 colon)?
A: 1.54 µM

Q: What about the TGI (HT29 colon) of the same compound?
A: 3.75 µM

Q: And the GI50 (DU-145 prostate)?
A: 1.65 µM

Q: And the TGI (DU-145 prostate)?
A: 3.11 µM

Q: What about the GI50 (OVCAR-3 ovarian) of the same compound?
A: 1.64 µM

Q: And the TGI (OVCAR-3 ovarian)?
A: 3.16 µM

Q: And the GI50 (HCC-2998 colon)?
A: 1.59 µM

Q: What about the TGI (HCC-2998 colon) of the same compound?
A: 3.21 µM

Q: What about the GI50 (SF-268 CNS) of the same compound?
A: 1.59 µM

Q: What about the TGI (SF-268 CNS) of the same compound?
A: 3.33 µM

Q: And the GI50 (NCI/ADR-RES ovarian)?
A: 1.81 µM

Q: What about the TGI (NCI/ADR-RES ovarian) of the same compound?
A: 3.94 µM

Q: What about the GI50 (COLO 205 colon) of the same compound?
A: 1.45 µM

Q: And the TGI (COLO 205 colon)?
A: 3.09 µM

Q: What about the GI50 (A549 NSCLC) of the same compound?
A: 1.42 µM

Q: And the TGI (A549 NSCLC)?
A: 3.11 µM
